According to the NIST ThermoML archive (doi:10.1021/je060137q):

Experiments:
[1] = for surface tension liquid-gas: Pendant drop shape; for mass density: 101 kPa, Liquid
[2] = xn = mol fraction of the nth substance listed; conditions: for surface tension liquid-gas: Pendant drop shape; for mass density: 101 kPa, Liquid

Cc1ccc(C)c(C)c1 [1,2,4-trimethylbenzene]
[1]
Conditions	mass density [kg/m3]	surface tension liquid-gas [mN/m]
298.15 K	871.64	29.29
313.15 K	859.5	27.67

Cc1ccc(C)c(C)c1 [1,2,4-trimethylbenzene] + CCOC(=O)OCC
[2]
Conditions	mass density [kg/m3]	surface tension liquid-gas [mN/m]
298.15 K, x2 = 0	871.64	29.29
298.15 K, x2 = 0.0501	875.81	–
298.15 K, x2 = 0.1005	880.1	28.85
298.15 K, x2 = 0.1497	884.28	–
298.15 K, x2 = 0.1994	888.62	28.41
298.15 K, x2 = 0.2518	893.23	–
298.15 K, x2 = 0.2998	897.55	27.98
298.15 K, x2 = 0.3499	902.17	–
298.15 K, x2 = 0.4001	–	27.58
298.15 K, x2 = 0.4004	906.89	–
298.15 K, x2 = 0.4496	911.54	–
298.15 K, x2 = 0.5	916.38	27.23
298.15 K, x2 = 0.5494	921.22	–
298.15 K, x2 = 0.5997	926.24	–
298.15 K, x2 = 0.6497	931.3	–
298.15 K, x2 = 0.6998	936.41	–
298.15 K, x2 = 0.7505	941.72	–
298.15 K, x2 = 0.8001	947	–
298.15 K, x2 = 0.8499	952.36	–
298.15 K, x2 = 0.9	957.82	–
298.15 K, x2 = 0.95	963.45	–
313.15 K, x2 = 0	859.5	27.67
313.15 K, x2 = 0.0508	863.46	–
313.15 K, x2 = 0.1	–	27.16
313.15 K, x2 = 0.1005	867.43	–
313.15 K, x2 = 0.1486	871.36	–
313.15 K, x2 = 0.2002	–	26.69
313.15 K, x2 = 0.2012	875.71	–
313.15 K, x2 = 0.2507	879.88	–
313.15 K, x2 = 0.3005	–	26.23
313.15 K, x2 = 0.3007	884.17	–
313.15 K, x2 = 0.352	888.61	–
313.15 K, x2 = 0.3997	–	25.81
313.15 K, x2 = 0.4006	892.94	–
313.15 K, x2 = 0.4499	897.37	–
313.15 K, x2 = 0.4981	901.79	–
313.15 K, x2 = 0.5001	–	25.49
313.15 K, x2 = 0.5498	906.6	–
313.15 K, x2 = 0.597	911.06	–
313.15 K, x2 = 0.6481	915.93	–
313.15 K, x2 = 0.699	920.93	–
313.15 K, x2 = 0.7499	925.98	–
313.15 K, x2 = 0.8002	931.06	–
313.15 K, x2 = 0.8473	935.87	–
313.15 K, x2 = 0.9001	941.45	–
313.15 K, x2 = 0.9499	946.74	–

Cc1ccc(C)c(C)c1 [1,2,4-trimethylbenzene] + COC(=O)OC
[2]
Conditions	mass density [kg/m3]	surface tension liquid-gas [mN/m]
298.15 K, x2 = 0	871.64	29.29
298.15 K, x2 = 0.0499	876.93	–
298.15 K, x2 = 0.0999	882.55	28.93
298.15 K, x2 = 0.15	888.53	–
298.15 K, x2 = 0.2	894.76	28.64
298.15 K, x2 = 0.2498	901.22	–
298.15 K, x2 = 0.2995	908.07	–
298.15 K, x2 = 0.3001	–	28.34
298.15 K, x2 = 0.3502	915.53	–
298.15 K, x2 = 0.4001	923.26	28.21
298.15 K, x2 = 0.45	931.35	–
298.15 K, x2 = 0.5	939.96	28.08
298.15 K, x2 = 0.55	949.04	–
298.15 K, x2 = 0.5998	958.57	–
298.15 K, x2 = 0.65	968.9	–
298.15 K, x2 = 0.6999	979.71	–
298.15 K, x2 = 0.7497	991.22	–
298.15 K, x2 = 0.7997	1003.68	–
298.15 K, x2 = 0.8501	1017.1	–
298.15 K, x2 = 0.8999	1031.25	–
298.15 K, x2 = 0.9498	1046.57	–
313.15 K, x2 = 0	859.5	27.67
313.15 K, x2 = 0.0505	864.72	–
313.15 K, x2 = 0.1008	–	27.23
313.15 K, x2 = 0.1012	870.23	–
313.15 K, x2 = 0.15	875.75	–
313.15 K, x2 = 0.1999	–	26.82
313.15 K, x2 = 0.2008	881.92	–
313.15 K, x2 = 0.2491	887.96	–
313.15 K, x2 = 0.2996	–	26.51
313.15 K, x2 = 0.3003	894.87	–
313.15 K, x2 = 0.3498	901.76	–
313.15 K, x2 = 0.3991	–	26.29
313.15 K, x2 = 0.401	909.43	–
313.15 K, x2 = 0.4509	917.26	–
313.15 K, x2 = 0.5	–	26.11
313.15 K, x2 = 0.5008	925.59	–
313.15 K, x2 = 0.5507	934.32	–
313.15 K, x2 = 0.5998	943.46	–
313.15 K, x2 = 0.65	953.33	–
313.15 K, x2 = 0.6995	963.85	–
313.15 K, x2 = 0.7505	975.23	–
313.15 K, x2 = 0.7994	986.99	–
313.15 K, x2 = 0.8502	1000	–
313.15 K, x2 = 0.8976	1013.08	–
313.15 K, x2 = 0.9504	1028.72	–

Cc1cc(C)cc(C)c1 [1,3,5-trimethylbenzene]
[1]
Conditions	mass density [kg/m3]	surface tension liquid-gas [mN/m]
298.15 K	861.04	28.09
313.15 K	848.73	26.82
